Experimental data from ChEMBL document CHEMBL1131081, “Beta-amino-thiols inhibit the zinc metallopeptidase activity of tetanus toxin light chain” (J Med Chem, 1998).
pKi: −log10 of the molar value.

Experiment: Binding affinity against S1 subsite of the Tetanus neurotoxin (TeNt)
Parameters: species or system Clostridium tetani

| Compound | pKi |
| --- | --- |
| NC(CS)c1cccc(S(N)(=O)=O)c1 (stereo unspecified) | 4.46 |
| NCC(CS)CCS(=O)(=O)O (stereo unspecified) | 3.30 |
| NC(CS)c1cccc(S(=O)(=O)O)c1 (stereo unspecified) | 4.40 |
| CN(C)C(=O)c1cccc(C(N)CS)c1 (stereo unspecified) | 3.60 |
| NC(=O)c1cccc(C(N)CS)c1 (stereo unspecified) | 3.90 |
| NC(CS)CCS(N)(=O)=O (stereo unspecified) | 4.00 |
